Measured values taken from patent US6642273B2, “Unsaturated derivatives at the 4-position of 6-tert-butyl-1,1-dimethylindane and their use in human and veterinary medicine and in cosmetics” (Galderma Research & Development, priority 1997, dated 2003).

Row | melting point [°C] | SMILES
1 | 99 to 100 | C=C(c1ccsc1C=O)c1cc(C(C)(C)C)cc2c1CCC2(C)C [Example 9, 3-[1-(6-tert-Butyl-1,1-dimethylindan-4-yl)ethen-1-yl]-thiophene-2-carboxaldehyde]
2 | 146 to 148 | C=C(c1ccsc1C(=O)O)c1cc(C(C)(C)C)cc2c1CCC2(C)C [Example 10, 3-[1-(6-tert-Butyl-1,1-dimethylindan-4-yl)ethen-1-yl]-thiophene-2-carboxylic Acid]
3 | 148 to 150 | C=C(c1cc(C(C)(C)C)cc2c1CCC2(C)C)c1sccc1C=O [Example 11, 2-[1-(6-tert-Butyl-1,1-dimethylindan-4-yl)ethen-1-yl]-thiophene-3-carboxaldehyde]
4 | 148 to 150 | C=C(c1cc(C(C)(C)C)cc2c1CCC2(C)C)c1sccc1C(=O)O [Example 12, 2-[1-(6-tert-Butyl-1,1-dimethylindan-4-yl)ethen-1-yl]-thiophene-3-carboxylic Acid]
